Test results published in patent publication US20050271630A1, “Method for treating cancer” (MEDINET Co., Ltd., priority 2004, published 2005).
“And” between values parts separate entries of the source, which are not always exact repeats. Identical values can stand only once. “Also recorded” adds a separate entry of the source. Counter-ions that a name gives are not always drawn. Like-named read-outs stand apart in the source and are kept apart here.

Experiments:
[1] = test system: GIST (gastrointestinal stromal tumors); settings: for Side effects: imatinib mesylate 200 mg/day
[2] = test system: non-small cell lung carcinoma; assay: Activated autologous lymphocyte therapy combined with gefitinib or conventional chemotherapy, 15 cases at Seta Clinic; assay type: in vivo, human
Protocol: Next, studies were conducted for comparing a combination therapy with a conventional chemotherapy other than gefitinib and the method of the present invention.
The response ratio was 46.7%. […] The effective ratio including this was 53.3%. The highest number of administrations was 35, and 10.4 times of treatments on average were conducted.

[3] = test system: non-small cell lung carcinoma
[4] = gefitinib alone, 104 cases, Phase 2 study; cited from earlier work
[5] = test system: lung carcinoma (adenocarcinoma); assay: Single case: CD3-LAK plus IRESSA (gefitinib), person; settings: for Response at examination: gefitinib 250 mg/day + CD3-LAK
[6] = 7 chemotherapy / 8 gefitinib cases
[7] = 7 conventional chemotherapy cases / 8 gefitinib cases, with activated autologous lymphocyte therapy
[8] = of 18 cases, gefitinib + CD3-LAK
[9] = of 18 cases, gefitinib + activated autologous lymphocyte therapy

SMILES: Cc1ccc(NC(=O)c2ccc(CN3CCN(C)CC3)cc2)cc1Nc1nccc(-c2cccnc2)n1 [imatinib mesylate]
- Duration of partial response since the start of the combination therapy ([1]; Patient 2): 21 months
- Increase in liver enzyme levels, GOT ([1]; Patient 2): 58 U/ml
- Increase in liver enzyme levels, GPT ([1]; Patient 2): 43 U/ml
- Side effects ([1]; Patient 2): itching with eczema of the face and limbs; also recorded: stomach discomfort; also recorded: diarrhea
- CA12-5 level ([1]; Patient 2, three months after starting the therapy, 151 U/ml at start): 26 U/ml
- Time without tumor progression since start of combination therapy ([1]; Patient 3): 25 months
- Side effects ([1]; Patient 3, combination therapy): diarrhea
- Side effects at the time of administration ([1]; Patient 3, imatinib mesylate 100 to 300 mg per day oral): side effects on their digestive organs
- Change of foci ([1]; Patient 3, one month after the MRI (one year and two months)): decreased slightly
- Interpretation of PET ([1]; Patient 3, one year and five months after starting the therapy): no extraordinary accumulation
- Size of foci in MRI ([1]; Patient 3, one year and one month after starting the combination therapy, two foci): 1.1 cm and 0.6 cm
- Tumor progression ([1]; Patient 3, since the combination therapy was started): had not progressed

SMILES: COc1cc2ncnc(Nc3ccc(F)c(Cl)c3)c2cc1OCCCN1CCOCC1 [gefitinib]
- Evaluation: Effective (percent) [2, 6]: (62.5%)
- Evaluation: No effect (percent) [2, 6]: (37.5%)
- The number of cases, Complete response [2, 7]: 0 cases
- The number of cases, Long no change [2, 7]: 0 cases
- The number of cases, No change [2, 7]: 3 cases
- The number of cases, Partial response [2, 7]: 5 cases
- The number of cases, Progressive disease [2, 7]: 0 cases
- Evaluation: Effective (number of cases) ([2]; complete + partial response + long no change, 7 chemotherapy / 8 gefitinib cases): Effective 5 cases
- Cases still alive ([2]; gefitinib group (cases 8-15)): 7 cases
- Longest period of survival confirmed ([2]; gefitinib group (cases 8-15)): 743 days
- Outcome at the end ([2]; individual cases 1-15, at end of trace period): Alive
- Evaluation: No effect (number of cases) ([2]; no change + progressive disease, 7 chemotherapy / 8 gefitinib cases): 3 cases
- Evaluation: No effect (percent) ([3]; 18 cases): (38.9%)
- New side effect caused by the combined use of the activated autologous lymphocytes ([3]; 18 cases, gefitinib + CD3-LAK): no new side effect
- Side effects: diarrhea, percent ([3]; 18 cases, gefitinib + CD3-LAK): 33%
- Side effects: nausea, percent ([3]; 18 cases, gefitinib + CD3-LAK): 17%
- Side effects: skin symptoms (eruption and dry skin), percent ([3]; 18 cases, gefitinib + CD3-LAK): 89%
- Outcome at the end ([3]; individual cases 1-18, at end of trace period, gefitinib 250 mg/day + CD3-LAK): Alive (17×) and Dead
- Evaluation: Effective (number of cases) ([3]; of 18 cases, complete + partial response): Effective 11 cases
- Side effects: diarrhea, cases [3, 8]: 6 cases
- Side effects: nausea, cases [3, 8]: 3 cases
- Side effects: skin symptoms (eruption and dry skin), cases [3, 8]: 16 cases
- The number of cases, No change [3, 9]: 6 cases
- The number of cases, Partial response [3, 9]: 11 cases
- The number of cases, Progressive disease [3, 9]: 1 cases
- Evaluation: No effect (number of cases) ([3]; of 18 cases, no change + progressive disease): No effect 7 cases
- Response ratio [4]: 18%
- Lesioned site in CT image ([5]; CT at examination on May 9 versus start of combination therapy (FIGS. 2 and 3)): almost disappeared
- Response at examination ([5]; examination on Feb. 13, 2003, therapy started Oct. 2002): considerable response
- Response at examination ([5]; examination on May 9 (2003)): remarkable response
